# Legend:
# [1] = test system: ptosis observed one hour after reserpine; test: Test B: antagonism of reserpine-induced ptosis in mice; type: in vivo; settings: Mus musculus, 1 h, po, antagonism of ptosis one hour after reserpine 2 mg/kg intravenous, read-out: Test B ED 50
# Experimental: Test B: Antagonism with respect to the ptosis observed one hour after an intravenous injection (2 mg/kg) of reserpine given to mice, following the protocol described by C.
# Toxicity LD50 mouse = settings: in vivo, po, read-out: Toxicity LD 50
# [2] = test system: generalized trembling caused by dl-5-hydroxytryptophane; test: Test A: potentiation in mice of generalized trembling caused by dl-5-hydroxytryptophane; type: in vivo; settings: Mus musculus, po, mice, potentiation of trembling by dl-5-hydroxytryptophane 200 mg/kg interperitoneal, read-out: Test A ED 50
# Experimental: Test A: Potentiation in mice of generalized trembling caused by an interperitoneal injection (200 mg/kg) of dl-5-hydroxytryptophane, following the protocol described by C. GOURET and G. RAYNAUD in J. Pharmacol. (Paris), (1974), 5, 231.
Structure (SMILES),ED50 [1],LD50 (Toxicity LD50 mouse),ED50 [2]
COCC1CN(c2ccc(/C=C/c3cccc(C#N)c3)cc2)C(=O)O1 (stereo not shown) [compound 196],0.55 mg/kg,> 1000 mg/kg,–
CNCC1CN(c2ccc(OCC3CCCC3)cc2)C(=O)O1 (stereo not shown) [compound 77],6.2 mg/kg,> 2000 mg/kg,2.5 mg/kg
CCC(=O)OCC1CN(c2ccc(OCc3cccc([N+](=O)[O-])c3)cc2)C(=S)O1 (stereo not shown) [compound 208],4.2 mg/kg,> 1000 mg/kg,10 mg/kg
N#Cc1cccc(COc2ccc(N3CC(CN)OC3=O)cc2)c1 (stereo not shown) [compound 205],3 mg/kg,> 1000 mg/kg,10.1 mg/kg
COCC1CN(c2ccc(OCc3ccc([N+](=O)[O-])c(Cl)c3)cc2)C(=O)O1 (stereo not shown) [compound 168],16 mg/kg,> 1000 mg/kg,25 mg/kg
COCC1CN(c2ccc(CCc3ccccc3)cc2)C(=O)O1 (stereo not shown) [compound 192],6 mg/kg,> 1000 mg/kg,5.8 mg/kg
N#CCCCOc1ccc(N2CC(CO)OC2=S)cc1 (stereo not shown) [compound 212],12 mg/kg,1000 mg/kg,4.3 mg/kg
COCC1CN(c2ccc(-c3ccccc3)cc2)C(=O)O1 (stereo not shown) [compound 195],2.2 mg/kg,> 1000 mg/kg,1.2 mg/kg
COCC1CN(c2ccc(OCC3(C)CCCC3)cc2)C(=O)O1 (stereo not shown) [compound 186],3 mg/kg,> 1000 mg/kg,3 mg/kg
COCC1CN(c2ccc(OCC3CCCC3)cc2)C(=O)O1 (stereo not shown) [compound 49],0.4 mg/kg,2000 mg/kg,0.5 mg/kg
COCC1CN(c2ccc(OCC3CCCOC3)cc2)C(=O)O1 (stereo not shown) [compound 182],5.8 mg/kg,> 1000 mg/kg,3.7 mg/kg
COCC1CN(c2ccc(C#Cc3ccccc3)cc2)C(=O)O1 (stereo not shown) [compound 189],0.9 mg/kg,> 1000 mg/kg,2.6 mg/kg
CCNCC1CN(c2ccc(OCc3cccc([N+](=O)[O-])c3)cc2)C(=O)O1 (stereo not shown) [compound 203],1.4 mg/kg,1000 mg/kg,5.2 mg/kg
COCC1CN(c2ccc(N(C)C)cc2)C(=O)O1 (stereo not shown) [compound 180],7.8 mg/kg,1000 mg/kg,7.4 mg/kg
COCC1CN(c2ccc(OCCC(C)C)cc2)C(=S)O1 (stereo not shown) [compound 214],1.8 mg/kg,1000 mg/kg,0.84 mg/kg
COCC1CN(c2ccc(/C=C/c3cccc([N+](=O)[O-])c3)cc2)C(=O)O1 (stereo not shown) [compound 191],0.38 mg/kg,1000 mg/kg,0.4 mg/kg
O=C1OC(CN2CCOCC2)CN1c1ccc(OCc2cccc([N+](=O)[O-])c2)cc1 (stereo not shown) [compound 202],10 mg/kg,> 1000 mg/kg,10 mg/kg
COCC1CN(c2ccc(OCc3cccc(Br)c3)cc2)C(=O)O1 (stereo not shown) [compound 197],6.7 mg/kg,> 1000 mg/kg,2.2 mg/kg
CC(=O)OCC1CN(c2ccc(OCC3CCCC3)cc2)C(=O)O1 (stereo not shown) [compound 13],2 mg/kg,> 2000 mg/kg,3 mg/kg
COC[C@H]1CN(c2ccc(OCc3cccc(C#N)c3)cc2)C(=O)O1 [compound 199],–,> 1000 mg/kg,0.31 mg/kg
COCC1CN(c2ccc(OCCC#N)cc2)C(=O)O1 (stereo not shown) [compound 52],–,> 2000 mg/kg,1.2 mg/kg
CN(C)CC1CN(c2ccc(OCCC#N)cc2)C(=O)O1 (stereo not shown) [compound 171],25 mg/kg,–,19.5 mg/kg
N#Cc1cccc(COc2ccc(N3CC(CO)OC3=S)cc2)c1 (stereo not shown) [compound 97],3.2 mg/kg,–,3.9 mg/kg

Structure (SMILES),ED50 [1],LD50 (Toxicity LD50 mouse),ED50 [2]
OCC1CN(c2ccc(OCc3ccc(Cl)cc3)cc2)C(=S)O1 (stereo not shown) [compound 95],35 mg/kg,–,50 mg/kg
COC[C@@H]1CN(c2ccc(OCc3cccc(C#N)c3)cc2)C(=O)O1 [compound 200],–,> 1000 mg/kg,1.7 mg/kg
N#CCCOc1ccc(N2CC(COC3CCCCC3)OC2=O)cc1 (stereo not shown) [compound 54],12.5 mg/kg,–,14 mg/kg
CC(=O)OCC1CN(c2ccc(OCc3cccc([N+](=O)[O-])c3)cc2)C(=S)O1 (stereo not shown) [compound 117],1.5 mg/kg,–,1.2 mg/kg
OCC1CN(c2ccc(OCC3CCCCC3)cc2)C(=S)O1 (stereo not shown) [compound 90],8 mg/kg,–,3 mg/kg
C=CCOCC1CN(c2ccc(OCc3cccc([N+](=O)[O-])c3)cc2)C(=O)O1 (stereo not shown) [compound 71],0.8 mg/kg,–,1 mg/kg
O=C(OCC1CN(c2ccc(OCC3CCCCC3)cc2)C(=O)O1)C1CCCCC1 (stereo not shown) [compound 121],8 mg/kg,–,11 mg/kg
CCOCC1CN(c2ccc(OCCC#N)cc2)C(=O)O1 (stereo not shown) [compound 147],2.6 mg/kg,–,1.5 mg/kg
COCC1CN(c2ccc(OCc3cc(Cl)cc(Cl)c3)cc2)C(=O)O1 (stereo not shown) [compound 166],3.4 mg/kg,–,3.8 mg/kg
CCCCC(=O)OCC1CN(c2ccc(OCc3cccc(Cl)c3)cc2)C(=O)O1 (stereo not shown) [compound 33],4.5 mg/kg,–,9.4 mg/kg
COCC1CN(c2ccc(OCc3cccc(C(F)(F)F)c3)cc2)C(=O)O1 (stereo not shown) [compound 66],6 mg/kg,–,4.7 mg/kg
COCC1CN(c2ccc(OCc3cc(Cl)cc([N+](=O)[O-])c3)cc2)C(=O)O1 (stereo not shown) [compound 156],0.3 mg/kg,–,0.47 mg/kg
CC(C)COCC1CN(c2ccc(OCc3cccc([N+](=O)[O-])c3)cc2)C(=O)O1 (stereo not shown) [compound 157],6.2 mg/kg,–,4.7 mg/kg
CC(C)C(=O)OCC1CN(c2ccc(OCC3CCCC3)cc2)C(=O)O1 (stereo not shown) [compound 15],2 mg/kg,–,2.2 mg/kg
COCC1CN(c2ccc(/C=C\c3ccccc3)cc2)C(=O)O1 (stereo not shown) [compound 193],30 mg/kg,–,19 mg/kg
CCCCCCCCC(=O)OCC1CN(c2ccc(OCC3CCCCC3)cc2)C(=O)O1 (stereo not shown) [compound 122],6.2 mg/kg,–,6.8 mg/kg
COCC1CN(c2ccc(OCc3ccc(Cl)cc3)cc2)C(=O)O1 (stereo not shown) [compound 68],6.2 mg/kg,–,5 mg/kg
COCC1CN(c2ccc(OCCCCC#N)cc2)C(=S)O1 (stereo not shown) [compound 217],1 mg/kg,–,1 mg/kg
CC(C)C(=O)OCC1CN(c2ccc(OCC3CCCCC3)cc2)C(=O)O1 (stereo not shown) [compound 103],6 mg/kg,–,5 mg/kg
CC(C)OCC1CN(c2ccc(OCc3cccc([N+](=O)[O-])c3)cc2)C(=O)O1 (stereo not shown) [compound 62],2.4 mg/kg,–,3.6 mg/kg
CCOCC1CN(c2ccc(OCc3cccc([N+](=O)[O-])c3)cc2)C(=O)O1 (stereo not shown) [compound 69],0.2 mg/kg,–,0.5 mg/kg
COCC1CN(c2ccc(OCC3CCCCCC3)cc2)C(=O)O1 (stereo not shown) [compound 150],0.5 mg/kg,–,0.7 mg/kg
CCCCCCCCC(=O)OCC1CN(c2ccc(OCC3CCCC3)cc2)C(=O)O1 (stereo not shown) [compound 19],3.5 mg/kg,–,5.5 mg/kg

Structure (SMILES),ED50 [1],LD50 (Toxicity LD50 mouse),ED50 [2]
CC(C)(C)C(=O)OCC1CN(c2ccc(OCc3ccccc3)cc2)C(=O)O1 (stereo not shown) [compound 27],44 mg/kg,–,25 mg/kg
CCC(=O)OCC1CN(c2ccc(OCc3cccc([N+](=O)[O-])c3)cc2)C(=O)O1 (stereo not shown) [compound 37],2 mg/kg,–,1.9 mg/kg
COCC1CN(c2ccc(OCCCCC#N)cc2)C(=O)O1 (stereo not shown) [compound 112],0.15 mg/kg,–,0.1 mg/kg
NCC1CN(c2ccc(OCc3ccc(F)cc3)cc2)C(=O)O1 (stereo not shown) [compound 176],4 mg/kg,–,4 mg/kg
CCCOCC1CN(c2ccc(OCc3ccccc3)cc2)C(=O)O1 (stereo not shown) [compound 152],15.5 mg/kg,–,18 mg/kg
O=C(OCC1CN(c2ccc(OCc3ccccc3)cc2)C(=O)O1)c1ccccc1 (stereo not shown) [compound 29],50 mg/kg,–,45 mg/kg
COCC1CN(c2ccc(OCC3CCCCC3)cc2)C(=O)O1 (stereo not shown) [compound 55],1.1 mg/kg,–,0.6 mg/kg
CC(=O)OCC1CN(c2ccc(OCc3cccc(F)c3)cc2)C(=O)O1 (stereo not shown) [compound 130],9.6 mg/kg,–,6.2 mg/kg
CCC(=O)OCC1CN(c2ccc(OCC#N)cc2)C(=O)O1 (stereo not shown) [compound 2],8 mg/kg,–,12.5 mg/kg
CCCCCCCCC(=O)OCC1CN(c2ccc(OCCC(C)C)cc2)C(=O)O1 (stereo not shown) [compound 126],1.8 mg/kg,–,4.4 mg/kg
NCC1CN(c2ccc(OCc3cccc([N+](=O)[O-])c3)cc2)C(=O)O1 (stereo not shown) [compound 84],1.3 mg/kg,–,3 mg/kg
CC(=O)OCC1CN(c2ccc(OCc3ccccc3)cc2)C(=O)O1 (stereo not shown) [compound 23],12.5 mg/kg,–,12 mg/kg
COCC1CN(c2ccc(OCc3ccc(Cl)c(Cl)c3)cc2)C(=O)O1 (stereo not shown) [compound 164],3.4 mg/kg,–,3.4 mg/kg
COCC1CN(c2ccc(OCc3ccc(F)c(C#N)c3)cc2)C(=O)O1 (stereo not shown) [compound 162],1.55 mg/kg,–,0.54 mg/kg
N#CCOc1ccc(N2CC(CO)OC2=S)cc1 (stereo not shown) [compound 92],50 mg/kg,–,30 mg/kg
CCCCOc1ccc(N2CC(COC)OC2=O)cc1 (stereo not shown) [compound 46],2 mg/kg,–,1.5 mg/kg
OCC1CN(c2ccc(OCc3ccc(F)cc3)cc2)C(=S)O1 (stereo not shown) [compound 96],3.6 mg/kg,–,4.7 mg/kg
CC(C)CCOCC1CN(c2ccc(OCc3cccc([N+](=O)[O-])c3)cc2)C(=O)O1 (stereo not shown) [compound 158],6 mg/kg,–,6 mg/kg
CC(C)C(=O)OCC1CN(c2ccc(OCc3ccccc3)cc2)C(=O)O1 (stereo not shown) [compound 25],25 mg/kg,–,15 mg/kg
CCCCCCCCC(=O)OCC1CN(c2ccc(OCc3cccc(C#N)c3)cc2)C(=O)O1 (stereo not shown) [compound 133],5.2 mg/kg,–,6 mg/kg
COCC1CN(c2ccc(OCc3ccc(C#N)cc3)cc2)C(=O)O1 (stereo not shown) [compound 159],4.8 mg/kg,–,5.2 mg/kg
CCC(=O)OCC1CN(c2ccc(OCCC#N)cc2)C(=O)O1 (stereo not shown) [compound 4],3.4 mg/kg,–,2.3 mg/kg
